We go through five compounds from patent US4808620A, “Pyrazolopyridine compounds, their preparation and use as platelet aggregation inhibitors” (Yoshitomi Pharmaceutical Industries, Ltd., priority 1986, dated 1989).

Assay [1] relates to Platelet Aggregation induced by Arachidonic Acid. Briefly: Effect on the Platelet Aggregation induced by Arachidonic Acid. The assay is classed as cell-based, Male Hartley guinea pigs. The conditions noted are these: Cavia porcellus, guinea pig PRP, 37° C., arachidonic acid 5×10^-4 M, maximum aggregation value, read-out: IC50, Pharmacological Experiment (4), platelet aggregation. The procedure:
Effect on the Platelet Aggregation induced by Arachidonic Acid
Male Hartley guinea pigs weighing 400-500 g were subjected to the abdominal operation under etherization. The citrated blood (9 volumes of blood and one volume of 3.8% sodium citrate solution) was collected from the abdominal aorta. Immediately, the blood was centrifuged at 150×g for 3 minutes to obtained platelet-rich plasma (PRP) as a supernatant. The remaining blood was centrifuged at 1400×g for 10 minutes to obtain platelet-poor plasma (PPP) as a supernatant. The number of platelet in PRP was adjusted to 4-6×10^5 platelets/mm^3 by adding PPP thereto The platelet aggregation was measured by using a platelet aggregometer according to the method of Born et al described in J. Physiol., vol. 168, p. 178 (1963). Test compound solution was added to PRP under stirring at 1500 rpm at 37° C., and two minutes later arachidonic acid (final concentration: 5×10^-4 M) is added thereto. The change of transmittance was recorded consecutively. The transmittance was adjusted to 0 and 100% with PRP and PPP, respectively. The inhibitory rate was calculated against the control group by using the maximum aggregation value as an index, and 50% inhibitory concentration(IC50, μg/ml) was determined by the linear regression method.

In assay [2] the test system is stretch symptom induced by phenylquinone. Briefly: Analgesic Activity (phenylquinone-induced stretch symptom, method of Hendershot et al). The assay is classed as in vivo, Male ddY mice. The conditions noted are these: Mus musculus, po; mice, p.o., 1 h before 0.02% phenylquinone i.p., stretch frequency for 20 min; read-out: ED50, Pharmacological Experiment (1), analgesic activity. The procedure: The experiment was performed according to the method of Hendershot et al described in J. Pharmacol. Exp. Ther., vol. 125, P. 237 (1959). Male ddY mice weighing 18-25 g were used in groups of 6-18. One hour after the oral administration of test compound solution (10 ml/kg), 10 ml/kg of 0.02% aqueous phenylquinone solution was intraperitoneally administered to the animal. The frequency of stretch symptom thus induced measured for 20 minutes. The inhibitory rate was determined in comparison with the control group and the 50% effective dose (ED50, mg/kg) was caluculated according to the linear regression method.

Assay [3] has as its system Acute Inflammation (carrageenin). Briefly: Effect on Acute Inflammation (carrageenin hind paw, method of Winter et al). It is filed as in vivo, Male Donryu rats. The conditions noted are these: Rattus norvegicus, po; rats, p.o., 1 h before 1% carrageenin, foot volume 3 h later; read-out: ED50, Pharmacological Experiment (2), acute inflammation. The procedure: Effect on Acute Inflammation
The experiment was performed according to the method of Winter et al described in Proc. Soc. Exp. Biol. Med., vol. 111, p. 544 (1962). Male Donryu rats weighing about 140 g which was fastened for 18 hours were used in groups of five animals. Test compound solution was orally administered and one hour later, 0.05 ml of saline solution containing 1% carrageenin was injected into the right hind paw. Three hours later, the foot volume was measured by the water displacement method. The rate of increase against the foot volume before the injection of carrageenin was calculated, and the inhibitory rate was determined as compared with the control group. The 50% effective dose (ED50, mg/kg) was determined by the linear regression method.

The subject of assay [4] is Chronic Inflammation (adjuvant arthritis). Briefly: Effect on Chronic Inflammation (adjuvant arthritis, method of Newbould). The assay is classed as in vivo, male Lewis rats. Conditions: Rattus norvegicus, po; adjuvant arthritis rats, p.o. once a day from 15th to 24th day, decrease of foot volume vs 15th day; read-out: MED, Pharmacological Experiment (3), chronic inflammation. The procedure:
Effect on Chronic Inflammation The experiment was performed by employing 10-week old male Lewis rats according to the method of Newbould described in Brit. J. Pharmacol., vol. 21, p. 127 (1963). Dead tubercle bacilli ([…] H5 type) suspended in liquid paraffin (0.5 mg/0.1 ml) was inoculated as adjuvant into the skin at the base of tail. Animals with arthritis were chosen on the 15th day and divided into groups of seven. Test compound solution (5 ml/kg) was orally administered once a day from 15th day of 24th day consecutively. The rate of change of the foot volume on the 24th day against the foot volume on the 15th day was calculated, and the inhibitory rate was determined as compared with the control group. The minimun effective dose (MED, mg/kg) was obtained based on the dose indicating the decrease of foot volume than the foot volume on the 15th day.

Each structure is given as a SMILES string. Converted amounts (≈) assume the structure as drawn.

Regarding `Cn1nc(-c2cc(C(C)(C)C)c(O)c(C(C)(C)C)c2)c2cccnc21` [Compound A, 3-(3,5-di-tertiarybutyl-4-hydroxyphenyl)-1-methyl-1H-pyrazolo[3,4-b]pyridine], in assay [1], the 50% inhibitory concentration (IC50) was determined as 1.05 µg/mL (≈ 3.11 µM). Besides, the results for the median effective dose (ED50) in assay [2] and in assay [3] were 9.5 mg/kg and 70 mg/kg, respectively. The minimal effective dose in assay [4] stood at 0.3 mg/kg.

On to `CC(C)(C)c1cc(-c2nn(CCO)c3ncccc23)cc(C(C)(C)C)c1O` [Compound B, 3-(3,5-di-tertiarybutyl-4-hydroxyphenyl)-1-(2-hydroxyethyl)-1H-pyrazolo [3,4-b]pyridine], for which, in assay [1], the IC50 was 0.09 µg/mL (≈ 0.245 µM). Besides, the ED50 in assay [2] came to 19 mg/kg; in assay [3], 44 mg/kg. In addition, in assay [4], the minimal effective dose turned out to be 3 mg/kg.

Consider `CCC(=O)OCCn1nc(-c2cc(C(C)(C)C)c(O)c(C(C)(C)C)c2)c2cccnc21` [Compound C, 3-(3,5-di-tertiarybutyl-4-hydroxyphenyl)-1-(2"propionyloxyethyl)-1H-pyrazolo [3,4-]pyridine], for which the IC50 in assay [1] was 0.95 µg/mL (≈ 2.24 µM). In addition, the ED50 in assay [2] turned out to be 1.1 mg/kg; in assay [3], 8 mg/kg. Besides, the minimal effective dose in assay [4] turned out to be 0.3 mg/kg.

Consider `CCOC(=O)CCn1nc(-c2cc(C(C)(C)C)c(O)c(C(C)(C)C)c2)c2cccnc21` [Compound D, 3-(3,5-di-tertiarybutyl-4-hydroxyphenyl)-1-(2-ethoxycarbonylethyl)-1H-pyrazolo [3,4-b]pyridine], for which the IC50 in assay [1] came to 0.12 µg/mL (≈ 0.283 µM). Besides, the ED50 in assay [2] is 0.56 mg/kg; in assay [3] it was 8.3 mg/kg. The minimal effective dose in assay [4] was determined as 1 mg/kg.

As to `CC(=O)OCCn1nc(-c2cc(C(C)(C)C)c(O)c(C(C)(C)C)c2)c2cccnc21` [Compound E, 1-(acetoxyethyl)-3-(3,5-di-tertiarybutyl-4-hydroxyphenyl)-1H-pyrazolo[3,4-b]pyridine], in assay [1], the IC50 amounted to 0.9 µg/mL (≈ 2.2 µM). For the same compound, the ED50 in assay [2] is 0.35 mg/kg; in assay [3] it was 14 mg/kg. Also, the minimal effective dose in assay [4] is 0.3 mg/kg.
